Measured values published in ChEMBL document CHEMBL4665675 (J Med Chem, 2020).
Each block holds one compound with its values, some of them ahead of it.

Key:
[1] = molecular target: T1, carboxylesterase 1 (CES1) (Homo sapiens, UniProt P23141); test: Substrate activity at human carboxylesterase 1 expressed in baculovirus infected Sf9 insect cells assessed as enzyme-catalysed compound cleavage incubated for 2 hrs by HPLC analysis; assay type: ADME; conditions: read-out: Activity
T1 sequence (P23141 whole entry): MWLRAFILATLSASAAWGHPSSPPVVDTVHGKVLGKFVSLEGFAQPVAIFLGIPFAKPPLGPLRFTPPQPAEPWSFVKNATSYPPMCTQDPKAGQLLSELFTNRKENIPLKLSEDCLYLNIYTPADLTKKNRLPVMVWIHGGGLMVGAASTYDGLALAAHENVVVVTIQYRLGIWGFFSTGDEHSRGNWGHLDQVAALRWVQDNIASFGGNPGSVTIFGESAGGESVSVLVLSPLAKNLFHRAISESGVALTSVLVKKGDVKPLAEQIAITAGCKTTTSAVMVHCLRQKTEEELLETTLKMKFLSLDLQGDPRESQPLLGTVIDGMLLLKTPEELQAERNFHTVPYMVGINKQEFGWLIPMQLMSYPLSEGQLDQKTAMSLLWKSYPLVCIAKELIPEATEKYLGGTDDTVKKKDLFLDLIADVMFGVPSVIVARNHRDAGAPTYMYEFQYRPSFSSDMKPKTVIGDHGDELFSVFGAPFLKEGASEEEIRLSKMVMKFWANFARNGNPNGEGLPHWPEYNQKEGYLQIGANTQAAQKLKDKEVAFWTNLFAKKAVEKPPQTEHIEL

[2] = tested on: HeLa; test: Cytotoxicity against human HeLa cells after 24 to 72 hrs by Cell Titer Blue assay; assay type: cell-based
[3] = tested on: HCT-116; test: Cytotoxicity against human HCT-116 cells by calcein AM reagent based fluorescence method; assay type: functional, cell-based
[4] = tested on: HCT-116; test: Cytotoxicity against human HCT-116 cells by cell titer-glow assay; assay type: functional, cell-based
[5] = tested on: SF-268; test: Cytotoxicity against human SF-268 cells by calcein AM reagent based fluorescence method; assay type: functional, cell-based
[6] = tested on: SF-268; test: Cytotoxicity against human SF-268 cells by cell titer-glow assay; assay type: functional, cell-based
[7] = Inhibition of calf brain tubulin by turbidimetry; parameters: species or system Bos taurus
[8] = molecular target: Tubulin; test: Inhibition of tubulin polymerization (unknown origin); assay type: protein-complex assay, Homo sapiens
[9] = species on record: Bos taurus; test: Inhibition of bovine brain tubulin polymerization preincubated for 15 mins followed by GTP addition and measured for 30 mins by spectrophotometric method
[10] = tested on: KB 3-1; test: Antiproliferative activity against human KB-31 cells incubated for 96 hrs by spectrophotometric method; assay type: functional, cell-based; conditions: KB 3-1, 96 h
[11] = Antiproliferative activity against human KB-8511 cells incubated for 96 hrs by spectrophotometric method; assay type: functional, cell-based; conditions: KB-ChR-8-5-11, 96 h
[12] = Inhibition of porcine tubulin polymerization by UV/visible spectrophotometry; parameters: species or system Sus scrofa
[13] = tested on: PANC-1; test: Cytotoxicity against human PANC1 cells incubated for 72 hrs by MTT assay; assay type: functional, cell-based; conditions: PANC-1, 72 h
[14] = tested on: HaCaT; test: Cytotoxicity against human HaCaT cells incubated for 72 hrs by MTT assay; assay type: functional, cell-based
[15] = tested on: BJAB; test: Cytotoxicity against human BJAB cells; assay type: functional, cell-based
[16] = tested on: PANC-1; test: Antiproliferative activity against human PANC1 cells incubated for 72 hrs by WST assay; assay type: functional, cell-based; conditions: PANC-1, 72 h
[17] = tested on: DU-145; test: Antiproliferative activity against human DU145 cells incubated for 72 hrs by WST assay; assay type: functional, cell-based; conditions: DU-145, 72 h

metabolised at 2 h [1]: 18%
SMILES: COc1cc2c(c(OC)c1OC)-c1ccc(NCCCC(=O)N[C@@H](CC(C)C)C(=O)OC3CCCC3)c(=O)cc1[C@@H](NC(C)=O)CC2
IC50 [2]: 1.19 µM

SMILES: COc1cc2c(c(OC)c1OC)-c1ccc(OC)c(=O)cc1[C@@H](NC(=O)CN(OC)C1C[C@H](O)[C@H](O)CO1)CC2 (stereo partly specified)
IC50 [3]: 0.3 µM | IC50 [4]: 0.3 µM | IC50 [5]: 0.3 µM | IC50 [6]: 0.3 µM

IC50 [7]: 0.33 µM
SMILES: COc1ccc2c(c1)/C(=N\O)CCc1cc(OC)c(OC)c(OC)c1-2

SMILES: COc1cc2c(c(OC)c1OC)-c1ccc(OC)c(=O)cc1CCC2
IC50 [8]: 2.6 µM

metabolised at 2 h [1]: 0%
SMILES: COc1cc2c(c(OC)c1OC)-c1ccc(NCCC(O)C(=O)N[C@H](C(=O)OC3CCCC3)c3ccccc3)c(=O)cc1[C@@H](NC(C)=O)CC2 (stereo partly specified)
IC50 [2]: 0.22 µM

SMILES: COc1cc2c(c(OC)c1OC)-c1ccc(OC)c(=O)cc1[C@@H](NC(=O)CN(OC)C1C[C@@H](O)[C@@H](O)[C@@H](CO)O1)CC2 (stereo partly specified)
IC50 [3]: 0.3 µM | IC50 [4]: 0.3 µM | IC50 [5]: 0.3 µM | IC50 [6]: 0.3 µM

inhibition [9]: 100% | IC50 [10]: > 1 µM
SMILES: COc1c(COC(C)=O)c2c(c(OC)c1OC)-c1ccc(OC)c(=O)cc1[C@@H](NC(C)=O)CC2
IC50 [11]: > 1 µM

IC50 [12]: 1 µM
SMILES: COc1ccc2c(c1O)COCc1cc(OC)c(OC)c(OC)c1-2

IC50 [7]: 2.3 µM
SMILES: COc1ccc2c(c1)N(C(C)=O)CCCc1cc(OC)c(OC)c(OC)c1-2

SMILES: COC(=O)c1ccc2c(c1)[C@@H](NC(=O)CO)CCc1cc(OC)c(OC)c(OC)c1-2
IC50 [13]: 0.08 µM | IC50 [14]: 0.016 µM

IC50 [8]: 1.6 µM
SMILES: COc1cc2c(c(OC)c1OC)-c1ccc(OC)c(=O)cc1CC=C2

SMILES: C=C1COc2cc3c(cc21)-c1c(cc(OC)c(OC)c1OC)CC[C@@H]3NC(=O)COC(=O)Cc1nc(CCCCCCCCCC(=O)OC(COC(=O)CCCCCCCCCCCCCCC)COP(=O)([O-])OCC[N+](C)(C)C)n[nH]1 (stereo partly specified)
IC50 [13]: 0.4 µM | IC50 [14]: 0.4 µM

SMILES: COc1cc2c(c(OC)c1OC)-c1ccc(OC)c(=O)cc1[C@@H](n1cc(CCC(=O)Cc3ccc4oc(=O)ccc4c3)nn1)CC2
IC50 [15]: 0.06 µM

IC50 [7]: 0.43 µM
SMILES: COc1ccc2c(c1)C(=O)CCc1cc(OC)c(OC)c(OC)c1-2

SMILES: COc1ccc2c(c1)[C@@H](NC(C)=O)CCc1cc(OC)c(OC)c(OC)c1-2
IC50 [16]: 0.08 µM | IC50 [17]: 0.78 µM | IC50 [7]: 0.3 µM

SMILES: COc1cc2c(c(OC)c1OC)-c1ccc(OC)c(=O)cc1[C@@H](NC(=O)CN(OC)C1O[C@H](C(C)=O)[C@H](O)[C@H](O)[C@H]1O)CC2 (stereo partly specified)
IC50 [3]: 0.3 µM | IC50 [4]: 0.3 µM | IC50 [5]: 0.3 µM | IC50 [6]: 0.3 µM

SMILES: COc1cc2c(c(OC)c1OC)-c1ccc(O)cc1[C@@H](NC(C)=O)CC2 [N-ACETYLCOLCHINOL]
IC50 [16]: 4.4 µM | IC50 [17]: 0.72 µM

SMILES: COc1cc2c(c(OC)c1OC)-c1ccc(OC)c(=O)cc1[C@@H](NC(=O)CN(OC)C1C[C@@H](O)[C@@H](O)CO1)CC2 (stereo partly specified)
IC50 [3]: 0.3 µM | IC50 [4]: 0.3 µM | IC50 [5]: 0.3 µM | IC50 [6]: 0.3 µM

inhibition [9]: 0% | IC50 [10]: > 1 µM
SMILES: COc1c(CNC(=O)c2ccccc2)c2c(c(OC)c1OC)-c1ccc(OC)c(=O)cc1[C@@H](NC(C)=O)CC2
IC50 [11]: > 1 µM

SMILES: CCCCCCCCCCCCCCCC(=O)OCC(COP(=O)([O-])OCC[N+](C)(C)C)OC(=O)CCCCCCCCCc1n[nH]c(CC(=O)OCC(=O)N[C@H]2CCc3cc(OC)c(OC)c(OC)c3-c3ccc(C(=O)OC)cc32)n1 (stereo partly specified)
IC50 [13]: 0.4 µM | IC50 [14]: 0.4 µM

metabolised at 2 h [1]: 33%
SMILES: COc1cc2c(c(OC)c1OC)-c1cc(NC(=O)c3ccc(CN[C@@H](CC(C)C)C(=O)OC4CCCC4)cc3)ccc1[C@@H](NC(C)=O)CC2
IC50 [2]: 1.48 µM
